Experimental data reported in publication PMC7934871 (JCI Insight, 2021).
Non-standard residues stand in square brackets, D forms with d. No end group written: not given here. pY = N[C@@H](Cc1ccc(OP(=O)(O)O)cc1)C(=O)O

Assays:
[1] = system: HCT116 xenografted tumors
Description: For in vivo study, HCT116 cells were subcutaneously engrafted into NSG mice. After tumors reached an average size of approximately 5 mm, mice were locally treated with 1 mg/kg of FAM-labeled PS-unacet.-STAT3, PS-STAT3-K685R, or PS-acet.-STAT3 peptides (Anaspec) every day for 35 days. Twenty-four hours after the last treatment, tumors were harvested and analyzed by IF staining and 20× immersion objective on LSM 700 confocal microscope (ZEISS). Images were quantified using Zen software (ZEISS).
Supplemental Figure 5 (related to Figure 2). […]
(C to G) Subcutaneous HCT116 xenografts treated with FAM-labeled PS-unacet.-STAT3, PS-STAT3-K685R or PS-acet.-STAT3 peptides every other day at 1 mg/kg for 40 days.
(C) Retention of PS-acet.-STAT3 peptide was visualized with IF staining of tissue sections followed by confocal microscopy. n= 6 tumor tissues. Scales, 50 µm.
(E) The mRNA levels of CASP9, BIRC5 and BCL2L1 from the same tumor tissues described above were assessed by qRT-PCR. SD is shown. n= 3 independent experiments. One-way […]
(F) IF staining of cell proliferation (Ki-67) and vascularization (CD-31) markers upon peptide treatments in HCT116 tumor tissues. Scales; 50 and 100 µm (upper panels). The lower panels show the quantification of Ki-67 and CD-31. n= 6 tumor tissues.
Same protein samples were used from (D).
Aftabizadeh and Li et al., Figure S5

STAT3 signaling = test: Gene expression of STAT3 targets by quantitative PCR; assay type: cell-based; settings: 1 μM, with or without IL-6 stimulation, n = 3
Description: Figure 8 PS-Gp130 and PS-MYC blocking peptides efficiently internalize into tumor cells to exert their functions. (A) For 1 hour 1 μM of PS-conjugated MYC (PS-MYC) and Gp130 (PS-Gp130) were incubated with cancer cells. PS-scramble MYC (PS-SC-MYC) was used as a control for PS-MYC. The peptide uptake was visualized by confocal microscopy and quantified by flow cytometry. Data are representative of 3 independent experiments (n = 3). (B) Upper panel: The binding of PS-Gp130 and STAT3 was examined by immunoprecipitation and Western blotting. PO-Gp130 was used as a control. For 4 hours prior to harvest, 1 μM of peptide was incubated with cells. […] (C) Gene expression of STAT3 targets was examined by quantitative PCR after the treatment with 1 μM of PS-Gp130 with or without IL-6 stimulation as described above. […] (D) A total of 1 μM of PS-SC-MYC or PS-MYC was incubated with cells for 48 hours before the gene expression of MYC targets was examined by quantitative PCR. […]
Total RNA was extracted from cultured or tumor tissues using RNeasy kit (QIAGEN), according to manufacturer’s instruction. After cDNA synthesis using iScript cDNA Synthesis kit (Bio-Rad), samples were analyzed using pairs of primers specific for CASP9, CASP3, CASP8, BIRC5, BCL2L1, MYC, TP53, VEGF, IL1B, SERPIN3, FGA, CDK4, CCND2, CDKN2A, CDKN2B, GADD45A, mCD274, mMmp9, and mBirc5, as indicated. […]

| Substance | tumor progression (proliferation marker Ki-67 and angiogenesis marker CD31) ([1]; HCT116 xenograft, 1 mg/kg local, IF staining) | STAT3 phosphorylation in tumors ([1]; HCT116 xenograft, 1 mg/kg local, immunoprecipitation and Western blotting) | transcriptional regulation (CASP9, BIRC5, BCL2L1 mRNA) in tumors ([1]; HCT116 xenograft, 1 mg/kg local, qRT-PCR) | acetylation of STAT3 in tumors ([1]; HCT116 xenograft, same samples as STAT3 phosphorylation) | cellular retention of peptide in tumors in vivo ([1]; mouse, in vivo, 1 mg/kg) | STAT3 signaling (gene expression of STAT3 targets) (STAT3 signaling) |
| --- | --- | --- | --- | --- | --- | --- |
| PDIPKEEAFGK685(Ac)YCRPESQEHPC-linker-T*C*C*A*T*G*A*G*C*T*T*C*C*T*G*A*T*G*C*T [PS-acet.-STAT3 peptide] | effectively inhibited | effectively inhibited | effectively inhibited | only moderately suppressed | retained in tumors at significantly higher levels |  |
| PS-Gp130: PS-conjugated Gp130 peptide (amino acids 901–910) with phospho-Tyr905 (MPKS[pY]LPQTV; also: phosphorothioate oligonucleotide conjugate; UniProt P40189 901-910, looked up, fragment) |  |  |  |  |  | significantly blocked |
